From patent US20180186742A1, “PICOLINAMIDES AS FUNGICIDES” (Dow AgroSciences LLC, priority 2017, published 2018) come the findings set out here.

Common to all, as to type: in vivo
Test [1] concerns Zymoseptoria tritici. As to the kind of experiment: Leaf blotch of wheat (SEPTTR), disease control on wheat seedlings. The conditions noted are these: for pest or weed control at 121.5 g/ha: low volume application at 121.5 g/H; for pest or weed control at 100 ppm: high volume application at 100 ppm. The essentials: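 Yuma wheat seedlings with the first leaf fully emerged were sprayed to run-off with compound in acetone plus nine volumes of water containing 110 ppm Triton X-100; track-spray tests used EC formulations with 0.1% Trycol 5941. Z. tritici inoculation came before or after treatment, followed by 100% RH dew periods and a 20 °C greenhouse. Percent control was calculated from severity versus untreated plants.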

Test [2] deals with Phakopsora pachyrhizi. The experiment in a line: Asian soybean rust (PHAKPA), disease control on soybean seedlings. The conditions noted are these: High volume application at 25 ppm. On the procedure:
Technical grades of materials were dissolved in acetone, which were then mixed with nine volumes of water containing 0.011% Tween 20. The fungicide solutions were applied onto soybean seedlings using an automated booth sprayer to run-off. All sprayed plants were allowed to air dry prior to further handling.
Soybean plants (variety Williams 82) were grown in soil-less Metro mix, with one plant per pot. Two week old seedlings were used for testing. Plants were inoculated either 3 days prior to or 1 day after fungicide treatments. Plants were incubated for 24 h in a dark dew room at 22° C. and 100% relative humidity then transferred to a growth room at 23° C. for disease to develop. Disease severity was assessed on the sprayed leaves.

Test [3] concerns Puccinia triticina. The experiment in a line: Wheat brown rust (PUCCRT), disease control on wheat seedlings. The conditions noted are these: for pest or weed control at 121.5 g/ha: low volume application at 121.5 g/H; for pest or weed control at 100 ppm: high volume application at 100 ppm. In short, it runs like this: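 Compounds in acetone, diluted with nine volumes of water containing 110 ppm Triton X-100, sprayed to run-off on first-leaf Yuma wheat seedlings; track-spray tests used EC formulations with 0.1% Trycol 5941. Puccinia triticina spores applied before or after treatment. Overnight dark dew room at 22° C, 100% humidity, then greenhouse at 24° C.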

[4] abbreviates: 24 h, 1 Day Protectant, read-out: SEPTTR disease control, 1DP, LV activity.
Setting [5] is: 72 h, 3 Day Curative, read-out: SEPTTR disease control, 3DC, LV activity.
Setting [6] is: 24 h, 1 Day Protectant, read-out: PHAKPA 1DP disease control rating.
[7] abbreviates: 72 h, 3 Day Curative, read-out: PHAKPA 3DC disease control rating.
Setting [8] is: 24 h, 1 Day Protectant, read-out: PUCCRT disease control, 1DP, LV activity.
Where [9] appears, read: 72 h, 3 Day Curative, read-out: PUCCRT disease control, 3DC, LV activity.
Setting [10] is: 24 h, 1 Day Protectant, read-out: SEPTTR disease control, 1DP, HV activity.
[11] abbreviates: 72 h, 3 Day Curative, read-out: SEPTTR disease control, 3DC, HV activity.
The mark [12] stands for this setting: 24 h, 1 Day Protectant, read-out: PUCCRT disease control, 1DP, HV activity.
Setting [13] is: 72 h, 3 Day Curative, read-out: PUCCRT disease control, 3DC, HV activity.
[14] abbreviates: 24 h, 1 Day Protectant, wheat leaf blotch, read-out: SEPTTR 1DP disease control, LV activity.
[15] abbreviates: 72 h, 3 Day Curative, wheat leaf blotch, read-out: SEPTTR 3DC disease control, LV activity.
The mark [16] stands for this setting: 24 h, 1 Day Protectant, wheat brown rust, read-out: PUCCRT 1DP disease control, LV activity.
Setting [17] is: 72 h, 3 Day Curative, wheat brown rust, read-out: PUCCRT 3DC disease control, LV activity.

The structures appear in SMILES notation. Where two headings read alike, the source gives them in different places. Bounds are passed on as bounds.

Turning to `COc1ccnc(C(=O)N[C@@H](C)C(=O)O[C@@H](C)[C@@H](c2ccccc2)C(C)C)c1OCOC(C)=O` [Compound 162], the pest or weed control at 121.5 g/ha in test [1] (setting [4]) was below 80%; in test [1] (setting [5]) it was above 80%; in test [3] (setting [8]), above 80%; in test [3] (setting [9]) it was above 80%. For the same compound, the pest or weed control at 25 ppm is above 80% in test [2] (setting [6]) and below 80% in test [2] (setting [7]).

For `COc1ccnc(C(=O)N[C@@H](C)C(=O)O[C@@H](C)[C@H](c2ccccc2)C(C)C)c1OCOC(C)=O` [Compound 164], the pest or weed control at 121.5 g/ha in test [1] (setting [4]), in test [1] (setting [5]), in test [3] (setting [8]) and in test [3] (setting [9]) was above 80% in each case. The pest or weed control at 25 ppm in test [2] (setting [6]) is above 80%; in test [2] (setting [7]), below 80%.

As to `COc1ccnc(C(=S)N[C@@H](C)C(=O)O[C@@H](C)[C@@H](c2ccccc2)C2CCCC2)c1OC(C)=O` [Compound 177], the pest or weed control at 121.5 g/ha was below 80% in test [1] (setting [4]), below 0% in test [1] (setting [5]), below 80% in test [3] (setting [8]) and below 0% in test [3] (setting [9]). Moreover, the pest or weed control at 25 ppm was above 80% in test [2] (setting [6]) and below 0% in test [2] (setting [7]).

In the case of `COc1ccnc(C(=O)N[C@@H](C)C(=O)O[C@@H](C)[C@@H](c2ccc(F)cc2C)C(C)C)c1OC(C)=O` [Compound 178], the pest or weed control at 121.5 g/ha in test [1] (setting [4]) is below 0%; in test [1] (setting [5]) it was below 80%; in test [3] (setting [8]) it was above 80%; in test [3] (setting [9]), below 80%. Further, the results for the pest or weed control at 25 ppm in test [2] (setting [6]) and in test [2] (setting [7]) were below 0% and below 80%, respectively.

On to `CCC(CC)[C@H](c1ccc(F)cc1C)[C@H](C)OC(=O)[C@H](C)NC(=O)c1nccc(OC)c1OC(C)=O` [Compound 179], for which the pest or weed control at 121.5 g/ha was above 80% in test [1] (setting [4]), above 80% in test [1] (setting [5]), above 80% in test [3] (setting [8]) and below 0% in test [3] (setting [9]). For the same compound, the pest or weed control at 25 ppm in test [2] (setting [6]) and in test [2] (setting [7]) was below 80% each time.

With `COc1ccnc(C(=O)N[C@@H](C)C(=O)O[C@@H](C)[C@@H](c2ccc(Cl)cc2Cl)C(C)C)c1O` [Compound 333], the pest or weed control at 100 ppm in test [1] (setting [10]) is below 80%; in test [1] (setting [11]), below 80%; in test [3] (setting [12]), above 80%; in test [3] (setting [13]), below 80%.

Turning to `COc1ccnc(C(=O)N[C@@H](C)C(=O)O[C@@H](C)[C@H](c2ccc3c(c2)OCO3)C(C)C)c1O` [Compound 334], the pest or weed control at 100 ppm is below 80% in test [1] (setting [10]), below 0% in test [1] (setting [11]), above 80% in test [3] (setting [12]) and above 80% in test [3] (setting [13]).

On to `COc1ccnc(C(=O)N[C@@H](C)C(=O)O[C@@H](C)[C@H](c2ccc(OC(F)(F)F)cc2)C(C)C)c1O` [Compound 335], for which the pest or weed control at 100 ppm in test [1] (setting [10]) is above 80%; in test [1] (setting [11]) it was below 80%; in test [3] (setting [12]) it was above 80%; in test [3] (setting [13]), above 80%.

As for `COc1ccnc(C(=O)N[C@@H](C)C(=O)O[C@@H](C)[C@H](c2ccc(OC(C)C)cc2)C(C)C)c1O` [Compound 336], the pest or weed control at 100 ppm in test [1] (setting [10]) is below 80%; in test [1] (setting [11]), below 80%; in test [3] (setting [12]), above 80%; in test [3] (setting [13]) it was below 80%.

As to `COc1ccnc(C(=O)N[C@@H](C)C(=O)O[C@@H](C)[C@H](c2ccccc2OC(C)C)C(C)C)c1O` [Compound 337], the pest or weed control at 100 ppm is below 80% in test [1] (setting [10]), below 0% in test [1] (setting [11]), above 80% in test [3] (setting [12]) and above 80% in test [3] (setting [13]).

Consider `COc1ccc([C@H](C(C)C)[C@H](C)OC(=O)[C@H](C)NC(=O)c2nccc(OC)c2O)cc1` [Compound 338], for which the pest or weed control at 100 ppm in test [1] (setting [10]) is below 80%; in test [1] (setting [11]) it was below 80%; in test [3] (setting [12]), above 80%; in test [3] (setting [13]), above 80%.

On to `COc1ccnc(C(=O)N[C@@H](C)C(=O)O[C@@H](C)[C@H](c2c(F)cc(F)cc2F)C(C)C)c1O` [Compound 341], for which the pest or weed control at 100 ppm in test [1] (setting [10]), in test [1] (setting [11]), in test [3] (setting [12]) and in test [3] (setting [13]) was above 80% each time.

Regarding `COc1ccnc(C(=O)N[C@@H](C)C(=O)O[C@@H](C)[C@H](c2c(F)cccc2Cl)C(C)C)c1O` [Compound 343], the pest or weed control at 100 ppm in test [1] (setting [10]), in test [1] (setting [11]), in test [3] (setting [12]) and in test [3] (setting [13]) was above 80% each time.

Turning to `CCC(C)[C@@H](c1ccccc1C)[C@H](C)OC(=O)[C@H](C)NC(=O)c1nccc(OC)c1OC(C)=O` (some centres unmarked) [Compound 384], the pest or weed control at 121.5 g/ha in test [1] (setting [14]), in test [1] (setting [15]), in test [3] (setting [16]) and in test [3] (setting [17]) was above 80% throughout.

Take `CCC(CC)[C@@H](c1ccccc1C)[C@H](C)OC(=O)[C@H](C)NC(=O)c1nccc(OC)c1OC(C)=O` [Compound 385]: the pest or weed control at 121.5 g/ha in test [1] (setting [14]), in test [1] (setting [15]), in test [3] (setting [16]) and in test [3] (setting [17]) was above 80% in each case.

For `CCC(C)[C@@H](c1ccccc1C)[C@H](C)OC(=O)[C@H](C)NC(=O)c1nccc(OC)c1OC(=O)C(C)C` (some centres unmarked) [Compound 386], the pest or weed control at 121.5 g/ha is below 80% in test [1] (setting [14]), above 80% in test [1] (setting [15]), above 80% in test [3] (setting [16]) and above 80% in test [3] (setting [17]).

Turning to `CCC(CC)[C@@H](c1ccccc1C)[C@H](C)OC(=O)[C@H](C)NC(=O)c1nccc(OC)c1OC(=O)C(C)C` [Compound 387], the pest or weed control at 121.5 g/ha was below 80% in test [1] (setting [14]), above 80% in test [1] (setting [15]), above 80% in test [3] (setting [16]) and below 80% in test [3] (setting [17]).

Consider `COc1ccnc(C(=O)N[C@@H](C)C(=O)O[C@@H](C)[C@H](c2c(F)cc(F)cc2F)C(C)C)c1OC(C)=O` [Compound 388], for which the pest or weed control at 121.5 g/ha in test [1] (setting [14]), in test [1] (setting [15]), in test [3] (setting [16]) and in test [3] (setting [17]) was above 80% each time.

Turning to `COc1ccnc(C(=O)N[C@@H](C)C(=O)O[C@@H](C)[C@H](c2ccc(Cl)cc2F)C(C)C)c1OC(C)=O` [Compound 389], the pest or weed control at 121.5 g/ha in test [1] (setting [14]), in test [1] (setting [15]), in test [3] (setting [16]) and in test [3] (setting [17]) was above 80% each time.

Take `COc1ccnc(C(=O)N[C@@H](C)C(=O)O[C@@H](C)[C@H](c2c(F)cccc2Cl)C(C)C)c1OC(C)=O` [Compound 390]: the pest or weed control at 121.5 g/ha in test [1] (setting [14]), in test [1] (setting [15]), in test [3] (setting [16]) and in test [3] (setting [17]) was above 80% in each case.

With `COc1ccnc(C(=O)N[C@@H](C)C(=O)O[C@@H](C)[C@H](c2cccc(C)c2)C(C)C)c1OC(C)=O` [Compound 391], the pest or weed control at 121.5 g/ha in test [1] (setting [14]) was below 80%; in test [1] (setting [15]), below 80%; in test [3] (setting [16]) it was above 80%; in test [3] (setting [17]) it was below 80%.

For the compound `COc1ccnc(C(=O)N[C@@H](C)C(=O)O[C@@H](C)[C@H](c2cc(F)ccc2F)C(C)C)c1OC(C)=O` [Compound 392], the pest or weed control at 121.5 g/ha in test [1] (setting [14]) is below 80%; in test [1] (setting [15]) it was above 80%; in test [3] (setting [16]), above 80%; in test [3] (setting [17]), above 80%.
